The text below walks through data of article PMC11208559 (Scientific Reports, 2024).

The test system of series [1] is CD-1 mice. In words: 52 °C tail-flick assay, morphine anti-nociception after Hsp90 inhibitor treatment. The class given is in vivo. As for the experimental part: (§1) Pre-injection tail-flick baselines were determined in a 52 °C tail-flick assay with a 10-s cutoff time (method also reported in Ref.[13]). […] No animals were excluded from these studies.
The subject of series [2] is CD-1 mice. Nature of the series: Morphine anti-nociceptive tolerance and tolerance rescue (tail flick). Type of series: in vivo. The following applies: for A50 of morphine, Day 1 of tolerance regimen / A50 of morphine, Day 4 of tolerance regimen: twice daily 1–10 mg/kg morphine s.c., 95% CI in parentheses. As for the experimental part: as §1
The next series can be described thus: physchem. Type of series: physicochemical. As for the experimental part: Distribution coefficient (LogD) was determined by the method of Wilson et al.[30]. Briefly, 5 µL volumes of test compounds diluted in DMSO were added to a mixture of equal volumes of 50 mM phosphate buffer and 1-octanol. The compounds were assayed using a 50 nM concentration in order to limit compound precipitation and to ensure that the assay values were maintained within the dynamic range of the LC–MS/MS instrumentation. Samples were vortex mixed at 800 rpm for 24 h. Subsequent to centrifugation at 14,000 rpm for 30 min, 1 µL of each layer was analyzed by LC–MS/MS. LogD was calculated using the peak areas obtained from each layer.
LC − MS/MS analysis was conducted using an Agilent (Santa Clara, CA) 6460 triple quadrupole mass spectrometer coupled with an Agilent liquid chromatography (LC) system. The LC system consists of a binary pump, degasser, column heater, and autosampler. Chromatographic separation was performed on a Waters Atlantis T3 3 µm 3.0 × 50 mm analytical column using a ballistic gradient of mobile phase consisting of 0.1% formic acid in water (A) and 0.1% formic acid in acetonitrile (B) at a flow rate of 0.75 mL/min. The mobile phase was heated to a temperature of 45 °C.

Series [3] in a line: in vitro. Type of series: in vitro ADME, CD-1 mice. The following applies: male, CD-1, mouse, microsomes. As for the experimental part: (§2) Metabolic stability of lead compounds was assessed in vitro by the method of Di et al.[32]. Briefly, mouse liver microsomes (Corning Life Sciences, Woburn, MA) were isolated from CD-1 mice (male mice, 8 − 10 weeks of age). Assays were conducted using 0.123 mg/mL protein concentration (total protein concentration in the microsomal solution) and 1.0 μM drug concentration under incubation conditions of 37 °C. Metabolic stability was determined following 0, 5, 15, 30, and 60 min of incubation time. The samples were analyzed by reversed phase LC using a triple quadrupole mass spectrometer. Compound specific transitions of parent ion to product ion were monitored and percent remaining calculated based on peak area of 5 − 60 min time points (relative to time zero). Half-life calculations were determined using the formula t½ = − ln(2)/k, where k (min^−1) is the turnover rate constant (the slope) estimated from a log − linear regression of the percentage compound remaining versus time.
LC − MS/MS analysis was conducted using an Agilent (Santa Clara, CA) 6460 triple quadrupole mass spectrometer coupled with an Agilent liquid chromatography (LC) system. The LC system consists of a binary pump, degasser, column heater, and autosampler. […]

Series [4] can be described thus: in vitro. The class given is in vitro ADME. As to conditions: male, human, microsomes. Here is the method: as §2
Metabolic stability of the compounds in human liver microsomes was determined by the method described above using pooled human liver microsome preparations from 20 male donors (Corning Life Sciences, Woburn, MA). Assays were conducted as described above and the in vitro half-life of the compounds was calculated. […]

A further series deals with T1, human mu opioid receptor (Homo sapiens, UniProt P35372).
T1 construct: membrane protein
The class given is binding. As to conditions: up to a 10 μM concentration.

For series [5], the target named is T2, human delta opioid receptor (Homo sapiens, UniProt P41143).
T2 construct: membrane protein
Nature of the series: Competition radioligand binding vs 3H-diprenorphine, delta opioid receptor. The following applies: up to a 10 μM concentration.

The target in series [6] is T3, human kappa opioid receptor (Homo sapiens, UniProt P41145).
T3 construct: membrane protein
In words: Competition radioligand binding vs 3H-diprenorphine, kappa opioid receptor. As to conditions: up to a 10 μM concentration.

Series [7] relates to CD-1 mice. The following applies: mouse, in vivo.
Series [8] relates to CD-1 mice. In words: Post-surgical paw incision, mechanical allodynia (von Frey), morphine anti-nociception. The class given is in vivo. Here is the method:
Mechanical thresholds were determined prior to surgery using calibrated von Frey filaments (Ugo Basile, Varese, Italy) with the up-down method and four measurements after the first response per mouse as in Ref.[27] and our previously published work (e.g. Ref.[28]). The mice were housed in a homemade apparatus with Plexiglas walls and ceiling and a wire mesh floor (3-inch wide 4-inch long 3-inch high with 0.25-inch wire mesh). The surgery was then performed by anesthesia with ~ 2% isoflurane in standard air, preparation of the left plantar hind paw with iodine and 70% ethanol, and a 5-mm incision made through the skin and fascia with a no. 11 scalpel. The muscle was elevated with curved forceps leaving the origin and insertion intact, and the muscle was split lengthwise using the scalpel. The wound was then closed with 5–0 polyglycolic acid sutures. Mice were then injected with inhibitor or Vehicle control and left to recover for 24 h. Our intrathecal (i.t.) injection protocol is reported in Refs.[13],[29]; briefly, the injection was made in awake and restrained animals with a 10 μL Hamilton syringe and 30 g needle (5–7 μL volume) between the L5-L6 vertebrae at a 45° angle, with placement validated by tail twitch. Since the injection was made through skin with no incision or other surgical intervention, repeated injection protocols were performed the same way. The next day, the mechanical threshold was again determined as described above. […] . No animals were excluded from these studies.

For series [9], the system named is CD-1 mice. In words: HIV peripheral neuropathy (gp120), mechanical threshold, morphine anti-nociception. The class given is in vivo. As to conditions: for A50 (morphine anti-nociceptive potency), HIV neuropathy: %MPE, 95% CI in parentheses. Here is the method: Mechanical threshold baselines were measured prior to any treatment on the left hind paw using von Frey filaments. HIV peripheral neuropathy was induced by intrathecal injection of gp120 IIIb protein (SPEED BioSystems, Gaithersburg, MD, Cat# YCP1549, 15 ng/μl in 0.1 M PBS and 0.1% BSA, 7-μl volume) using our previously established protocol[13] on days 1, 3, and 5. On day 20 a second mechanical threshold baseline was measured on the left hind paw using von Frey filaments and then KU-32 or Vehicle was injected i.t with a 24-h treatment time. […] . No animals were excluded from these studies.

Series [10] concerns CD-1 mice. Nature of the series: Conditioned place preference (morphine reward). The following applies: Vehicle i.t. over 4 days with 3.2–10 mg/kg morphine s.c.; 95% CI in parentheses.
The test system of series [11] is CD-1 mice. Nature of the series: Opioid induced constipation (fecal production over 6 h).
[12] abbreviates: 0.01 nmol KU-32 i.t. vs Vehicle.
The mark [13] stands for this setting: daily 0.01 nmol KU-32 i.t., tail flick.

Where a name gives a salt, the structure may show the parent alone.

Usually logD stands for lipophilicity at a set pH, counting ionised and neutral species. A low value points to lower lipophilicity. As a reminder, the half-life is the time needed for the level to fall by half in the phase considered. Higher therefore signals slow decline. In the case of `CCCc1cc2cc(-n3nc(C)c4c3CC(C)(C)CC4=O)cc(N3CCC(O)CC3)c2c(=O)[nH]1` [KUNB106], the “naloxone reversibility of inhibitor-enhanced morphine pain relief” value with CD-1 mice [1] (1 mg/kg i.v., 24 h, 2 mg/kg naloxone i.p. 10 min, 3.2 mg/kg morphine s.c., tail flick) is recorded as “fully naloxone-reversible”. Also, the “A50 (morphine anti-nociceptive potency), tail flick, systemic inhibitor” value in the series on CD-1 mice [1] (1 mg/kg inhibitor i.v., 24 h, then 1–5.6 mg/kg morphine s.c., peak %MPE, 95% CI in parentheses) is given as 1.7 (1.1–2.3) mg/kg. Moreover, the “effect of higher 10 mg/kg dose on morphine pain relief (tail flick)” value in the series on CD-1 mice [1] (10 mg/kg i.v. vs 1 mg/kg i.v., 24 h, then 3.2 mg/kg morphine s.c.) was “less benefit than 1 mg/kg”. Besides, in the series on CD-1 mice [2] (3 days twice daily 10 mg/kg morphine s.c., 1 mg/kg i.v. on day 3, 24 h, 10 mg/kg morphine s.c., tail flick), the “rescue of established morphine tolerance, systemic inhibitor” value is reported as “rescued established tolerance”. Also, the log distribution coefficient (logD) at 24 h in “physchem” stood at 2.26. The half-life at 1 µM was 1.05 h in “in vitro [3]” and 2.6 h in the series “in vitro [4]”. The “binding to mu opioid receptor (competition vs 3H-diprenorphine)” value on human mu opioid receptor is “did not find any binding”. In addition, the “binding to delta opioid receptor (competition vs 3H-diprenorphine)” value in series [5] is on record as “did not find any binding”. Also, the “binding to kappa opioid receptor (competition vs 3H-diprenorphine)” value in [6] is given as “did not find any binding”. Besides, in the series with CD-1 mice [7], the “effect on respiratory activity before and after morphine” value is recorded as “no impact on respiratory activity before or after morphine”.
In the case of `Cc1ccc(Sc2cc(C(=O)N3Cc4ccccc4C3)ccc2O)cc1C` [KUNA115], the “effect on morphine tail flick anti-nociception, isoform-selective inhibitor i.t.” value with CD-1 mice [1] (0.01 nmol i.t., 24 h, then 3.2 mg/kg morphine s.c.) was “significant anti-nociceptive elevation”. For the same compound, in the series with CD-1 mice [8] (1 mg/kg i.v., 24 h, then 3.2 mg/kg morphine s.c.), the “effect of systemic Hsp90α inhibitor on morphine anti-nociception, paw incision” value is reported as “completely blocked anti-nociception”.
`CO[C@@H]1[C@@H](O)[C@@H](O)[C@H](Oc2ccc3cc(NC(C)=O)c(=O)oc3c2C)OC1(C)C` [KU-32]: the “fold increase in morphine potency, tail flick” value in the series on CD-1 mice [1] (setting [12]) turned out to be 1.9 fold. Besides, the “A50 (morphine anti-nociceptive potency), tail flick” value in the series on CD-1 mice [1] (0.01 nmol KU-32 i.t., 24 h, then 1–10 mg/kg morphine s.c., %MPE, 95% CI in parentheses) is given as 1.6 (1.3–2.0) mg/kg. Also, the “fold increase in morphine potency, paw incision” value in the series with CD-1 mice [8] (setting [12]) came to 2.8 fold. For the same compound, the “A50 (morphine anti-nociceptive potency), paw incision” value in the series on CD-1 mice [8] (0.01 nmol KU-32 i.t., 24 h, then 0.32–5.6 mg/kg morphine s.c., %MPE, 95% CI in parentheses) is listed as 0.85 (0.64–1.1) mg/kg. Further, the “A50 (morphine anti-nociceptive potency), HIV neuropathy” value in the series on CD-1 mice [9] (0.01 nmol KU-32 i.t. on day 20, 24 h, then 0.32–10 mg/kg morphine s.c.) is given as 1.2 (0.87–1.5) mg/kg. Besides, in the series on CD-1 mice [9] (setting [12]), the “fold increase in morphine potency, HIV neuropathy” value came to 3.5 fold. The “baseline nociception (tail flick baseline responses)” value in the series with CD-1 mice [2] (0.01 nmol i.t. daily, 7-day regimen) is given as “not altering baseline nociception”. The “rescue of established morphine tolerance” value with CD-1 mice [2] (3 days twice daily 10 mg/kg morphine s.c., 0.01 nmol i.t. on day 3, 24 h, 10 mg/kg morphine on day 4) is “full anti-nociceptive response to morphine, comparable to their day 1 response”. In the series with CD-1 mice [2] (setting [13]), the “A50 of morphine, Day 1 of tolerance regimen” value was 1.9 (1.3–2.5) mg/kg and the “A50 of morphine, Day 4 of tolerance regimen” value is recorded as 5.5 (3.5–12) mg/kg.
For `CN1CC[C@]23c4c5ccc(O)c4O[C@H]2[C@@H](O)C=C[C@H]3[C@H]1C5` [morphine, Morphine sulfate pentahydrate, reference compound], the “A50 (morphine anti-nociceptive potency), tail flick” value is reported as 3.0 (2.5–3.7) mg/kg with CD-1 mice [1] (Vehicle i.t., 24 h, then 1–10 mg/kg morphine s.c., %MPE, 95% CI in parentheses); 5.6 (4.4–∞) mg/kg in the series on CD-1 mice [1] (Vehicle i.v. (control of KUNB106 experiment, Fig. 9E), 24 h, then 1–5.6 mg/kg morphine s.c.); 3.6 (2.9–4.6) mg/kg in the series with CD-1 mice [1] (Vehicle i.v. (control of KUNG65 experiment, Fig. 8F), 24 h, then 1–5.6 mg/kg morphine s.c.). The “A50 (morphine anti-nociceptive potency), paw incision” value in the series with CD-1 mice [8] (Vehicle i.t., 24 h, then morphine s.c., %MPE, 95% CI in parentheses) was 2.4 (2.0–2.8) mg/kg; with CD-1 mice [8] (Vehicle i.v. (control of KUNB106 experiment, Fig. S7B), then 1–3.2 mg/kg morphine s.c.), 2.5 (2.0–∞) mg/kg; in the series with CD-1 mice [8] (Vehicle i.v. (control of KUNG65 experiment, Fig. S6B), then 1–3.2 mg/kg morphine s.c.), 2.0 (1.4–3.0) mg/kg. The “A50 (morphine anti-nociceptive potency), HIV neuropathy” value in the series on CD-1 mice [9] (Vehicle i.t. on day 20, 24 h, then morphine s.c.) is recorded as 4.2 (3.7–4.8) mg/kg. Besides, the “A50 of morphine, Day 1 of tolerance regimen” value in the series with CD-1 mice [2] (daily Vehicle i.t., tail flick) was 5.2 (3.9–7.5) mg/kg. The “A50 of morphine, Day 4 of tolerance regimen” value with CD-1 mice [2] (daily Vehicle i.t., tail flick) is given as 110 (30–6300) mg/kg. Also, the “A50 (morphine reward potency, CPP % Difference Score)” value in the series with CD-1 mice [10] is 5.1 (2.7–7.7) mg/kg. Moreover, in the series on CD-1 mice [11] (1 mg/kg morphine s.c.), the “constipation compared to saline-injected controls” value is recorded as ~ 40%. Besides, the “constipation compared to saline-injected controls (plateau)” value with CD-1 mice [11] (3.2–10 mg/kg morphine s.c.) is listed as ~ 70%. In the series on CD-1 mice [11] (Vehicle i.t., 24 h, then morphine s.c., 6-h AUC, %MPE, 95% CI in parentheses), the “A50 (morphine constipation potency)” value is 0.67 (0.32–0.94) mg/kg.
